In patent publication US9029337B2, “Modulation of factor 7 expression” (Isis Pharmaceuticals, Inc., priority 2007, dated 2015):
Strand notation (5' to 3'): a small letter for the sugar, then the base; units joined by * are phosphorothioate-linked, units joined directly phosphodiester-linked; [ ] holds rarer units or linkages, { } end groups; capitals alone tell only the bases. e = 2'-O-(2-methoxyethyl) (MOE); [5mC] = 5-methylcytosine; d = 2'-deoxy (DNA)

Columns and labels:
human Factor 7 mRNA [1] = assay: Antisense inhibition of human Factor 7 mRNA in HepB3 cells, 50 nM antisense oligonucleotide, lipofectin; assay type: cell-based; settings: for % Inhibition: lipofectin, approximately 24 hours; for % Inhibition of human Factor 7 mRNA levels: gapmers targeted to nucleobases 4868 to 4899 of SEQ ID NO: 1, Table 8
Summary of the method: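 After transfection of wells containing 4,000 cells, treatment ran for approximately 24 h. RIBOGREEN®-measured total RNA served for normalisation, and inhibition was calculated as a percentage of untreated control.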

human Factor 7 mRNA [2] = assay: Dose-dependent antisense inhibition of human Factor 7 in HepB3 cells, lipofectin; assay type: cell-based; settings: approximately 16 hours
Method: Cells were plated at a density of 4,000 cells per well and treated with lipofectin reagent with 3.125 nM, 6.25 nM, 12.5 nM, 25 nM, 50 nM, and 100 nM concentrations of antisense oligonucleotide, as indicated in Table 3. After a treatment period of approximately 16 hours, RNA was isolated from the cells and Factor 7 mRNA levels were measured by real-time RT-PCR, as described herein. Human Factor 7 primer probe set RTS 2927 (forward sequence: […], incorporated herein as SEQ ID NO: 164; reverse sequence: […], incorporated herein as SEQ ID NO: 165; probe sequence: TGGGTGGTCTCCGCGGCCX, incorporated herein as SEQ ID NO: 166) was used to measure mRNA levels. Factor 7 mRNA levels were adjusted according to total RNA content as measured by RIBOGREEN®. Results are presented as percent inhibition of Factor 7, relative to untreated control cells.
Cells were plated at a density of 4,000 cells per well and transfected using lipofectin reagent with 6.25 nM, 12.5 nM, 25.0 nM, 50.0 nM, and 100.0 nM concentrations of antisense oligonucleotide, as indicated in Table 7. After a treatment period of approximately 16 hours, RNA was isolated from the cells and Factor 7 mRNA levels were measured by real-time RT-PCR, as described herein. Human Factor 7 primer probe set RTS 2927 was used to measure mRNA levels. Factor 7 mRNA levels were adjusted according to total RNA content as measured by RIBOGREEN®. Results are presented as percent inhibition of Factor 7, relative to untreated control cells.
Cells were plated at a density of 4,000 cells per well and transfected using lipofectin reagent with 3.125 nM, 6.25 nM, 12.5 nM, 25 nM, 50 nM, and 100 nM concentrations of antisense oligonucleotide, as specified in Table 14. After a treatment period of approximately 16 hours, RNA was isolated from the cells and Factor 7 mRNA levels were measured by quantitative real-time PCR. Human Factor 7 primer probe set RTS 2927 was used to measure mRNA levels. Factor 7 mRNA levels were adjusted according to total RNA content, as measured by RIBOGREEN®. Results are presented as percent inhibition of Factor 7, relative to untreated control cells.

[3] = Table 1, 50 nM, relative to untreated control cells
[4] = 50 nM antisense oligonucleotide, Factor 7 mRNA by real-time RT-PCR (RTS 2927), relative to untreated control

Substance | % Inhibition (human Factor 7 mRNA [1]; [3]) [%] | percent inhibition of Factor 7 (human Factor 7 mRNA [2]; Table 3, 3.125 nM) [%] | percent inhibition of Factor 7 (human Factor 7 mRNA [2]; Table 3, 6.25 nM) [%] | percent inhibition of Factor 7 (human Factor 7 mRNA [2]; Table 3, 12.5 nM) [%] | percent inhibition of Factor 7 (human Factor 7 mRNA [2]; Table 3, 25.0 nM) [%] | percent inhibition of Factor 7 (human Factor 7 mRNA [2]; Table 3, 50.0 nM) [%] | percent inhibition of Factor 7 (human Factor 7 mRNA [2]; Table 3, 100.0 nM) [%] | % Inhibition (human Factor 7 mRNA [1]; [4]) [%] | % Inhibition (human Factor 7 mRNA levels) (human Factor 7 mRNA [1]; oligonucleotides targeted to nucleobases 14707 to 14732 of SEQ ID NO: 1 (Table 11)) [%] | % Inhibition (human Factor 7 mRNA levels) (human Factor 7 mRNA [1]; oligonucleotides targeted to nucleobases 15098 to 15122 of SEQ ID NO: 1 (Table 12)) [%] | percent inhibition of Factor 7 (human Factor 7 mRNA [2]; Table 7, 6.25 nM) [%] | percent inhibition of Factor 7 (human Factor 7 mRNA [2]; Table 7, 12.5 nM) [%] | percent inhibition of Factor 7 (human Factor 7 mRNA [2]; Table 7, 25.0 nM) [%] | percent inhibition of Factor 7 (human Factor 7 mRNA [2]; Table 7, 50.0 nM) [%] | percent inhibition of Factor 7 (human Factor 7 mRNA [2]; Table 7, 100.0 nM) [%] | % Inhibition of human Factor 7 mRNA levels (human Factor 7 mRNA [1]) [%]
407594 (antisense e[5mC]*e[5mC]*eT*eG*e[5mC]*dA*dG*d[5mC]*d[5mC]*dA*dG*dG*d[5mC]*dA*dG*e[5mC]*e[5mC]*e[5mC]*eT*eG) [compound 407594] | 87 | 10 | 34 | 63 | 77 | 84 | 80 |  |  |  |  |  |  |  |  | 
407606 (antisense e[5mC]*eT*eG*eG*eT*d[5mC]*d[5mC]*dT*dT*dG*d[5mC]*dA*dG*dG*dA*eG*e[5mC]*e[5mC]*e[5mC]*e[5mC]) [compound 407606] | 89 | 20 | 0 | 49 | 55 | 83 | 84 | 57 |  |  |  |  |  |  |  | 
407641 (antisense e[5mC]*e[5mC]*eT*eG*eA*dG*dG*d[5mC]*d[5mC]*dA*dG*d[5mC]*dA*dG*dA*eT*e[5mC]*eA*e[5mC]*eG) [compound 407641] | 94 | 53 | 53 | 71 | 84 | 88 | 89 | 73 | 68 |  |  |  |  |  |  | 
407643 (antisense e[5mC]*eA*e[5mC]*eA*e[5mC]*dA*dT*dG*dG*dA*dG*dT*d[5mC]*dA*dG*e[5mC]*eA*eT*e[5mC]*eG) [compound 407643] | 84 | 16 | 59 | 68 | 76 | 92 | 95 | 80 |  | 69 | 36 | 49 | 70 | 83 | 93 | 
407900 (antisense e[5mC]*e[5mC]*e[5mC]*e[5mC]*eA*d[5mC]*dA*dA*dT*dT*d[5mC]*dG*dG*d[5mC]*d[5mC]*eT*eT*eG*eG*eG) [compound 407900] | 91 | 52 | 58 | 80 | 87 | 94 | 91 | 78 |  |  | 18 | 36 | 61 | 82 | 91 | 
407910 (antisense eA*eG*eT*e[5mC]*e[5mC]*dT*dT*dG*d[5mC]*dT*dG*d[5mC]*d[5mC]*dA*dT*e[5mC]*e[5mC]*eG*eA*eG) [compound 407910] | 86 | 31 | 44 | 69 | 68 | 82 | 89 | 72 |  |  |  |  |  |  |  | 
407936 (antisense eG*eG*e[5mC]*eA*eT*dT*d[5mC]*dG*d[5mC]*d[5mC]*dA*d[5mC]*d[5mC]*dA*dT*eG*e[5mC]*eA*eT*eG) [compound 407936] | 91 | 45 | 77 | 79 | 86 | 91 | 90 |  |  |  |  |  |  |  |  | 
416438 (antisense e[5mC]*eA*eG*eG*eA*dG*d[5mC]*d[5mC]*d[5mC]*d[5mC]*d[5mC]*dA*dT*dT*d[5mC]*eT*eG*eG*e[5mC]*eA) [compound 416438] |  |  |  |  |  |  |  | 63 |  |  | 11 | 33 | 56 | 75 | 82 | 
416446 (antisense eG*eG*eT*e[5mC]*eA*d[5mC]*dT*dG*d[5mC]*dA*dG*dT*dA*d[5mC]*dT*eG*e[5mC]*eT*e[5mC]*eA) [compound 416446] |  |  |  |  |  |  |  | 64 |  |  | 25 | 24 | 50 | 69 | 64 | 
416449 (antisense eT*eA*eG*eG*eT*dA*dT*dT*dT*dT*dT*d[5mC]*d[5mC]*dA*d[5mC]*eA*eT*eG*eG*eA) [compound 416449] |  |  |  |  |  |  |  | 68 |  |  | 19 | 33 | 45 | 65 | 85 | 
422298 (antisense eG*e[5mC]*d[5mC]*d[5mC]*dG*dA*dG*dT*dT*d[5mC]*dT*dG*d[5mC]*dA*dG*eG*eA*eG*e[5mC]*eG) [compound 422298] |  |  |  |  |  |  |  |  |  |  |  |  |  |  |  | 62
422299 (antisense eA*eG*d[5mC]*d[5mC]*d[5mC]*dG*dA*dG*dT*dT*d[5mC]*dT*dG*d[5mC]*dA*eG*eG*eA*eG*e[5mC]) [compound 422299] |  |  |  |  |  |  |  |  |  |  |  |  |  |  |  | 64
422300 (antisense eG*eA*dG*d[5mC]*d[5mC]*d[5mC]*dG*dA*dG*dT*dT*d[5mC]*dT*dG*d[5mC]*eA*eG*eG*eA*eG) [compound 422300] |  |  |  |  |  |  |  |  |  |  |  |  |  |  |  | 65
422301 (antisense eG*eG*dA*dG*d[5mC]*d[5mC]*d[5mC]*dG*dA*dG*dT*dT*d[5mC]*dT*dG*e[5mC]*eA*eG*eG*eA) [compound 422301] |  |  |  |  |  |  |  |  |  |  |  |  |  |  |  | 67
422302 (antisense eA*eG*dG*dA*dG*d[5mC]*d[5mC]*d[5mC]*dG*dA*dG*dT*dT*d[5mC]*dT*eG*e[5mC]*eA*eG*eG) [compound 422302] |  |  |  |  |  |  |  |  |  |  |  |  |  |  |  | 67
